# From US20130210034A1, “COMPLEX PHOSPHOPROTEIN ACTIVATION PROFILES” (BECKMAN COULTER, INC., priority 2005, published 2013)
# “And” between values parts separate entries of the source, which are not always exact repeats. Equal entries are not always repeated.
# How the values were obtained:
# Assay type in all cases: cell-based, human
# pERK [1] = test: Phosphoprotein kinetic profiles in CD34+, CD117+ cells of AML bone marrow samples; conditions: CD34^+, CD117^+ cells, AML1 sample (Example 6)
# Experimental: (§1) To assess the signal transduction response after growth factor simulation, 100 to 200 μL of processed samples including about 2×10^6 WBC/100 μL were added to tubes and incubated at 37° C. for 30 minutes. For inhibition experiments, cells were incubated with 100 μM U0126, 1 μg/mL rapamycin, or both for at least 20 minutes prior to cytokine addition and in all cases for 30 min prior to formaldehyde addition. […] After stimulation the cells were immediately fixed by the addition of formaldehyde to a final concentration of 4% v/v and incubated for 10 minutes at room temperature. Following fixation, red blood cells were lysed by the addition of TRITON-X/PBS solution (0.1% v/v final concentration Triton X-100) supplemented with a 1 x phosphatase inhibitor cocktail (PIC; final concentrations: 0.2 mM sodium orthovanadate, 2 mM sodium pyrophosphate decahydrate, 2 mM [3-glycerophosphate, and 10 mM sodium fluoride) and incubation at 37° C. for 20 minutes. The incubated solution was chilled by the addition of ice-cold Wash Buffer (final concentration 1×PBS and either 4% bovine serum albumin (BSA) or 4% heat-inactivated fetal bovine serum (FBS), supplemented with 1×PIC), and the samples were centrifuged at 300 g for 6 minutes at 4° C.). If the lysis was incomplete, samples were retreated with 0.1% Triton X-100 at 37° C. for 10 to 20 minutes. After removal of the supernatant, cells were washed twice in ice-cold Wash Buffer supplemented with 1×PIC and permeabilized by the addition of pre-chilled 80% methanol while simultaneously vortexing the tube and incubated on ice for 10 minutes. Methanol was removed by centrifugation, the pellet was washed with ice-cold 1×PBS, and non-specific binding was blocked by the addition of ice-cold Wash Buffer supplemented with 1×PIC and incubation at 4° C. for a minimum of 30 minutes.
# (§2) To stain cells with fluorescent conjugated monoclonal antibodies, the incubated solution was centrifuged to remove the supernatant and the pellet was incubated for 60 minutes at 4° C. with an antibody staining solution including 0.25 μg to 0.50 μg of pS6-Pacific Blue, pERK-ALEXA 488, pSTAT5-ALEXA 647, CD34-PE, CD45-PerCP, and CD117-PC7. Samples were washed three times with ice-cold Wash Buffer supplemented with 1×PIC, resuspended in 0.5 mL ice-cold Wash Buffer supplemented with 1×PIC including 0.5 μg/mL DAPI, and analyzed by flow cytometryusing a BD LSR II Flow Cytometer, equipped with a High Throughput Sampler (HTS).
# (§3) First, doublets, aggregates, and debris were excluded by gating on single cell events in the SSC-Area versus SSC-Height histogram. Then, in events passing through this gate, debris near the origin of the FSC-Area versus SSC-Area plot (gray in FIG. 4A) was excluded by drawing a gate around an area encompassing, primarily, lymphocytes, monocytes, and granulocytes (LMG, black in FIG. 4A). Next, in cells passing through the LMG gate, the blast region (circle in FIG. 4B) was identified in the CD45 versus SSC-Area histogram (FIG. 4B). From this blast population, CD34+, CD117+ cells were identified in the CD34 versus CD117 plot (boxed area in FIG. 4C). Finally, these cells were further analyzed for cytokine-mediated increases in phosphorylation by constructing gates in the single parameter histograms (for positively and negatively stained events, i.e., for the phosphorylated and non-phosphorylated forms, respectively, of each protein) for pS6 (FIGS. 4D and 4G), pERK (FIGS. 4E and 4H), and pSTAT5 (FIGS. 4F and 4I). […] The dotted lines in each of these histograms represent unstimulated cells at t=0 min. FCS files were processed with WinList 6.0 3D (Verity Software House).
# pSTAT5 [2] = test: as above; conditions: AML1 sample (Example 6)
# Experimental: as §1, §2, §3
# pS6 [3] = test: as above; conditions: CD34^+, CD117^+ cells, AML1 sample (Example 6)
# Experimental: as §1, §2, §3
# pERK [4] = test: Phosphoprotein kinetic profiles in bone marrow samples from healthy donors
# Experimental: (§4) Phosphoprotein kinetic profiles were analyzed in bone marrow aspiration samples from nine healthy, adult donors (i.e., normal bone marrow or NBM) and from five AML patients. Samples from healthy donors included 5 males and 4 females, ranging in age from 26 to 49 years. Approximately 10 to 20 mL of bone marrow (BM) samples were collected from the posterior iliac crest of the volunteers using IRB approved protocols. The BM samples were filtered using a 40 μm Nylon cell strainer to remove marrow particles and the white blood cell concentration determined using a blood analyzer. […] The samples were immediately used for subsequent experimentation.
# as §1, §2
# (§5) First, doublets, aggregates, and debris were excluded by gating on single cell events in the SSC-Area versus SSC-Height histogram. Then, in events passing through this gate, debris near the origin of the FSC-Area versus SSC-Area plot (gray in FIG. 4A) was excluded by drawing a gate around an area encompassing, primarily, lymphocytes, monocytes, and granulocytes (LMG, black in FIG. 4A). Next, in cells passing through the LMG gate, the blast region (circle in FIG. 4B) was identified in the CD45 versus SSC-Area histogram (FIG. 4B). From this blast population, CD34+, CD117+ cells were identified in the CD34 versus CD117 plot (boxed area in FIG. 4C).
# pSTAT5 [5] = test: as above
# Experimental: as §4, §1, §2, §5
# pS6 [6] = test: as above
# Experimental: as §4, §1, §2, §5
# [7] = CD34^+, CD117^+ cells, healthy donor samples
# [8] = monocytes, healthy donor bone marrow
# [9] = monocytes vs CD34^+, CD117^+ cells
substance,measurement,setting,value
Granulocyte-Macrophage Colony-Stimulating Factor [GM-CSF],pERK Amp (peak amplitude of fold stimulation),pERK [1],6
same,pERK RI (response interval),pERK [1],10 min
same,pSTAT5 Amp (peak amplitude of fold stimulation),pSTAT5 [2],110
same,pSTAT5 RI (response interval),pSTAT5 [2],>60 min
same,pS6 Amp (peak amplitude of fold stimulation),pS6 [3],1
same,pS6 RI (response interval),pS6 [3],20 min
same,pERK Amp (peak amplitude of fold stimulation),pERK [4]; [7],4.5 and 4.5 ± 0.6
same,pERK RI (response interval),pERK [4]; [7],Variable
same,pERK maximal fold stimulation,pERK [4]; [8],about 100
same,pSTAT5 RI (response interval),pSTAT5 [5]; [7],>60 min
same,"pSTAT5 maximal fold stimulation in monocytes, times the level observed in CD34^+, CD117^+ cells",pSTAT5 [5]; [9],about 500 times
same,pSTAT5 maximal fold stimulation,pSTAT5 [5]; [8],"approximately 10,000"
same,pS6 Amp (peak amplitude of fold stimulation),pS6 [6]; [7],1.8 and 1.8 ± 0.3
same,pS6 RI (response interval),pS6 [6]; [7],Variable
same,"pS6 maximal fold stimulation in monocytes, times the level observed in CD34^+, CD117^+ cells",pS6 [6]; [9],about 100 times
same,pS6 maximal fold stimulation,pS6 [6]; [8],about 500
